Reference: ChEMBL document CHEMBL1914418, “Biochemical and pharmacological profiling of the pro-survival protein Bcl-xL” (Bioorg Med Chem Lett, 2011)

Legend:
Bcl-2-like protein 1 [1] = biological target: Bcl-2-like protein 1 (Homo sapiens, UniProt Q07817, G196A); experiment: Displacement of BODIPY-Bak conjugated peptide from GST-tagged human Bcl-2-like protein 1 G196A mutant expressed in Escherichia coli BL21 cells at 40 uM after 3 hrs by fluorescence polarization competition assay
[2] = Displacement of BODIPY-Bak conjugated peptide from GST-tagged human Bcl-2-like protein 1 A142G, delta136T mutant expressed in Escherichia coli BL21 cells at 40 uM after 3 hrs by fluorescence polarization competition assay
Bcl-2-like protein 1 [3] = biological target: Bcl-2-like protein 1 (Homo sapiens, UniProt Q07817, R100E); experiment: Displacement of BODIPY-Bak conjugated peptide from GST-tagged human Bcl-2-like protein 1 R100E mutant expressed in Escherichia coli BL21 cells at 40 uM after 3 hrs by fluorescence polarization competition assay
Chain of Bcl-2-like protein 1 (Homo sapiens, UniProt Q07817, R100E) (Q07817 whole entry R100E): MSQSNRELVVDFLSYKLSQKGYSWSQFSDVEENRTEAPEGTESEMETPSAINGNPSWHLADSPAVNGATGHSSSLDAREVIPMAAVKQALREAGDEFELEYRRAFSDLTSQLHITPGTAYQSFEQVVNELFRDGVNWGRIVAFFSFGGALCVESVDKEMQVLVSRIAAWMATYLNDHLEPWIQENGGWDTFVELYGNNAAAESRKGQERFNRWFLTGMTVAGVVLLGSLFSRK

Bcl-2-like protein 1 [4] = biological target: Bcl-2-like protein 1 (Homo sapiens, UniProt Q07817, F97V); experiment: Displacement of BODIPY-Bak conjugated peptide from GST-tagged human Bcl-2-like protein 1 F97V mutant expressed in Escherichia coli BL21 cells at 40 uM after 3 hrs by fluorescence polarization competition assay
Chain of Bcl-2-like protein 1 (Homo sapiens, UniProt Q07817, F97V) (Q07817 whole entry F97V): as the sequence (Q07817 whole entry R100E) above, with F97V, E100R counted along it

Bcl-2-like protein 1 [5] = biological target: Bcl-2-like protein 1 (Homo sapiens, UniProt Q07817, A93V); experiment: Displacement of BODIPY-Bak conjugated peptide from GST-tagged human Bcl-2-like protein 1 A93V mutant expressed in Escherichia coli BL21 cells at 40 uM after 3 hrs by fluorescence polarization competition assay
Chain of Bcl-2-like protein 1 (Homo sapiens, UniProt Q07817, A93V) (Q07817 whole entry A93V): as the sequence (Q07817 whole entry R100E) above, with A93V, E100R counted along it

Bcl-2-like protein 1 [6] = biological target: T1, Bcl-2-like protein 1 (Homo sapiens, UniProt Q07817, L130G); experiment: Displacement of BODIPY-Bak conjugated peptide from GST-tagged human Bcl-2-like protein 1 L130G mutant expressed in Escherichia coli BL21 cells at 40 uM after 3 hrs by fluorescence polarization competition assay
T1 sequence (Q07817 whole entry L130G): as the sequence (Q07817 whole entry R100E) above, with E100R, L130G counted along it

Bcl-2-like protein 1 [7] = biological target: Bcl-2-like protein 1 (Homo sapiens, UniProt Q07817, L130A); experiment: Displacement of BODIPY-Bak conjugated peptide from GST-tagged human Bcl-2-like protein 1 L130A mutant expressed in Escherichia coli BL21 cells at 40 uM after 3 hrs by fluorescence polarization competition assay
Chain of Bcl-2-like protein 1 (Homo sapiens, UniProt Q07817, L130A) (Q07817 whole entry L130A): as the sequence (Q07817 whole entry R100E) above, with E100R, L130A counted along it

Bcl-2-like protein 1 [8] = biological target: Bcl-2-like protein 1 (Homo sapiens, UniProt Q07817, A142T); experiment: Displacement of BODIPY-Bak conjugated peptide from GST-tagged human Bcl-2-like protein 1 A142T mutant expressed in Escherichia coli BL21 cells at 40 uM after 3 hrs by fluorescence polarization competition assay
Chain of Bcl-2-like protein 1 (Homo sapiens, UniProt Q07817, A142T) (Q07817 whole entry A142T): as the sequence (Q07817 whole entry R100E) above, with E100R, A142T counted along it

Bcl-2-like protein 1 [9] = biological target: T2, Bcl-2-like protein 1 (Homo sapiens, UniProt Q07817, L130V); experiment: Displacement of BODIPY-Bak conjugated peptide from GST-tagged human Bcl-2-like protein 1 L130V mutant expressed in Escherichia coli BL21 cells at 40 uM after 3 hrs by fluorescence polarization competition assay
T2 sequence (Q07817 whole entry L130V): as the sequence (Q07817 whole entry R100E) above, with E100R, L130V counted along it

Bcl-2-like protein 1 [10] = biological target: Bcl-2-like protein 1 (Homo sapiens, UniProt Q07817, Y101H); experiment: Displacement of BODIPY-Bak conjugated peptide from GST-tagged human Bcl-2-like protein 1 Y101H mutant expressed in Escherichia coli BL21 cells at 40 uM after 3 hrs by fluorescence polarization competition assay
Chain of Bcl-2-like protein 1 (Homo sapiens, UniProt Q07817, Y101H) (Q07817 whole entry Y101H): as the sequence (Q07817 whole entry R100E) above, with E100R, Y101H counted along it

Bcl-2-like protein 1 [11] = biological target: Bcl-2-like protein 1 (Homo sapiens, UniProt Q07817, V141A); experiment: Displacement of BODIPY-Bak conjugated peptide from GST-tagged human Bcl-2-like protein 1 V141A mutant expressed in Escherichia coli BL21 cells at 40 uM after 3 hrs by fluorescence polarization competition assay
Chain of Bcl-2-like protein 1 (Homo sapiens, UniProt Q07817, V141A) (Q07817 whole entry V141A): as the sequence (Q07817 whole entry R100E) above, with E100R, V141A counted along it

Bcl-2-like protein 1 [12] = biological target: Bcl-2-like protein 1 (Homo sapiens, UniProt Q07817, Y195F); experiment: Displacement of BODIPY-Bak conjugated peptide from GST-tagged human Bcl-2-like protein 1 Y195F mutant expressed in Escherichia coli BL21 cells at 40 uM after 3 hrs by fluorescence polarization competition assay
Chain of Bcl-2-like protein 1 (Homo sapiens, UniProt Q07817, Y195F) (Q07817 whole entry Y195F): as the sequence (Q07817 whole entry R100E) above, with E100R, Y195F counted along it

Bcl-2-like protein 1 [13] = biological target: Bcl-2-like protein 1 (Homo sapiens, UniProt Q07817, E129H); experiment: Displacement of BODIPY-Bak conjugated peptide from GST-tagged human Bcl-2-like protein 1 E129H mutant expressed in Escherichia coli BL21 cells at 40 uM after 3 hrs by fluorescence polarization competition assay
Chain of Bcl-2-like protein 1 (Homo sapiens, UniProt Q07817, E129H) (Q07817 whole entry E129H): as the sequence (Q07817 whole entry R100E) above, with E100R, E129H counted along it

[14] = Displacement of BODIPY-Bak conjugated peptide from GST-tagged human Bcl-2-like protein 1 delta136T mutant expressed in Escherichia coli BL21 cells at 40 uM after 3 hrs by fluorescence polarization competition assay
Bcl-2-like protein 1 [15] = biological target: Bcl-2-like protein 1 (Homo sapiens, UniProt Q07817, A142G); experiment: Displacement of BODIPY-Bak conjugated peptide from GST-tagged human Bcl-2-like protein 1 A142G mutant expressed in Escherichia coli BL21 cells at 40 uM after 3 hrs by fluorescence polarization competition assay
Chain of Bcl-2-like protein 1 (Homo sapiens, UniProt Q07817, A142G) (Q07817 whole entry A142G): as the sequence (Q07817 whole entry R100E) above, with E100R, A142G counted along it

Bcl-2-like protein 1 [16] = biological target: Bcl-2-like protein 1 (Homo sapiens, UniProt Q07817, E96G); experiment: Displacement of BODIPY-Bak conjugated peptide from GST-tagged human Bcl-2-like protein 1 E96G mutant expressed in Escherichia coli BL21 cells at 40 uM after 3 hrs by fluorescence polarization competition assay
Chain of Bcl-2-like protein 1 (Homo sapiens, UniProt Q07817, E96G) (Q07817 whole entry E96G): as the sequence (Q07817 whole entry R100E) above, with E96G, E100R counted along it

Bcl-2-like protein 1 [17] = biological target: T3, Bcl-2-like protein 1 (Homo sapiens, UniProt Q07817); experiment: Displacement of BODIPY-Bak conjugated peptide from GST-tagged human Wild type Bcl-2-like protein 1 expressed in Escherichia coli BL21 cells at 40 uM after 3 hrs by fluorescence polarization competition assay
T3 sequence (Q07817 whole entry): as the sequence (Q07817 whole entry R100E) above, with E100R counted along it

Bcl-2-like protein 2 = biological target: T4, Bcl-2-like protein 2 (Homo sapiens, UniProt Q92843); experiment: Displacement of BODIPY-Bak conjugated peptide from GST-tagged human wild type Bcl-W expressed in Escherichia coli BL21 cells at 10 uM after 3 hrs by fluorescence polarization competition assay
T4 sequence (Q92843 whole entry): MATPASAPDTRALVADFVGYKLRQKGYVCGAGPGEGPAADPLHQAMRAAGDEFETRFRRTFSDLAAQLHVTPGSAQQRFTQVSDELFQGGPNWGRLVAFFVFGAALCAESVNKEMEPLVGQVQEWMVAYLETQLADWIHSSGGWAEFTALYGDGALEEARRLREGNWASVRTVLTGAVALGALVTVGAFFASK

Bcl-2-like protein 1 [18] = biological target: T1, Bcl-2-like protein 1; experiment: Displacement of BODIPY-Bak conjugated peptide from GST-tagged human Bcl-2-like protein 1 L130G mutant expressed in Escherichia coli BL21 cells at 10 uM after 3 hrs by fluorescence polarization competition assay
Bcl-2-like protein 1 [19] = biological target: T3, Bcl-2-like protein 1; experiment: Displacement of BODIPY-Bak conjugated peptide from GST-tagged human Wild type Bcl-2-like protein 1 expressed in Escherichia coli BL21 cells at 10 uM after 3 hrs by fluorescence polarization competition assay
Bcl-2-like protein 1 [20] = biological target: T2, Bcl-2-like protein 1; experiment: Displacement of BODIPY-Bak conjugated peptide from GST-tagged human Bcl-2-like protein 1 L130V mutant expressed in Escherichia coli BL21 cells at 10 uM after 3 hrs by fluorescence polarization competition assay
[21] = biological target: T5, Induced myeloid leukemia cell differentiation protein Mcl-1 homolog (Mus musculus, UniProt P97287); experiment: Displacement of BODIPY-Bak conjugated peptide from GST-tagged mouse wild type MCL1 expressed in Escherichia coli BL21 cells at 10 uM after 3 hrs by fluorescence polarization competition assay
T5 sequence (P97287 whole entry): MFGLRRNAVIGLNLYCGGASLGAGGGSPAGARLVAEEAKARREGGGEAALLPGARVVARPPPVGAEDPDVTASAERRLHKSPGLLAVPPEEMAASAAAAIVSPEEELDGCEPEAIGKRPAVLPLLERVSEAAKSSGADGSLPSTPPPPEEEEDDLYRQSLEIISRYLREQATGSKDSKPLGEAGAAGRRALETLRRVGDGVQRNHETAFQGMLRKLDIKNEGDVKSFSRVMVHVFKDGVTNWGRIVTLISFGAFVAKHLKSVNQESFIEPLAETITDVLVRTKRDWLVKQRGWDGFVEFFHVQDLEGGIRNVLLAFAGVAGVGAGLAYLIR

[22] = biological target: T5, Induced myeloid leukemia cell differentiation protein Mcl-1 homolog; experiment: Binding affinity for GST-tagged mouse MCL1 expressed in Escherichia coli BL21 cells
[23] = Displacement of BODIPY-Bak conjugated peptide from GST-tagged human Bcl-2-like protein 1 delta136T mutant expressed in Escherichia coli BL21 cells at 10 uM after 3 hrs by fluorescence polarization competition assay
[24] = Displacement of BODIPY-Bak conjugated peptide from GST-tagged human Bcl-2-like protein 1 A142Gdelta136T mutant expressed in Escherichia coli BL21 cells at 10 uM after 3 hrs by fluorescence polarization competition assay
Bcl-2-related protein A1 = biological target: T6, Bcl-2-related protein A1 (Homo sapiens, UniProt Q16548); experiment: Binding affinity for GST-tagged human BCL2A1 expressed in Escherichia coli BL21 cells
T6 sequence (Q16548 whole entry): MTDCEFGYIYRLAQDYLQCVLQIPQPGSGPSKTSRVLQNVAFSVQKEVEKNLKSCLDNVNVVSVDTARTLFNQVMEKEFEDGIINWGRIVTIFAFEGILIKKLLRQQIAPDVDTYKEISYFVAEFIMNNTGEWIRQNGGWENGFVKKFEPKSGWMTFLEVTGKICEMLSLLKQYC

Chain of Bcl-2-like protein 1 (Homo sapiens, UniProt Q07817, G196A) (Q07817 whole entry G196A): as the sequence (Q07817 whole entry R100E) above, with E100R, G196A counted along it

| Molecule | Ki (Bcl-2-like protein 1 [1]) | Ki [2] | Ki (Bcl-2-like protein 1 [3]) | Ki (Bcl-2-like protein 1 [4]) | Ki (Bcl-2-like protein 1 [5]) | Ki (Bcl-2-like protein 1 [6]) | Ki (Bcl-2-like protein 1 [7]) | Ki (Bcl-2-like protein 1 [8]) | Ki (Bcl-2-like protein 1 [9]) | Ki (Bcl-2-like protein 1 [10]) | Ki (Bcl-2-like protein 1 [11]) | Ki (Bcl-2-like protein 1 [12]) | Ki (Bcl-2-like protein 1 [13]) | Ki [14] | Ki (Bcl-2-like protein 1 [15]) | Ki (Bcl-2-like protein 1 [16]) | Ki (Bcl-2-like protein 1 [17]) | further results |
| --- | --- | --- | --- | --- | --- | --- | --- | --- | --- | --- | --- | --- | --- | --- | --- | --- | --- | --- |
| CSCC[C@H](NC(=O)[C@H](CCCNC(=N)N)NC(=O)[C@H](CCCNC(=N)N)NC(=O)[C@H](CC(C)C)NC(=O)[C@H](CCC(=O)O)NC(=O)[C@H](CCCNC(=N)N)NC(=O)CNC(=O)[C@H](Cc1ccc(O)cc1)NC(=O)[C@H](CCCNC(=N)N)NC(=O)[C@H](CCC(N)=O)NC(=O)[C@H](C)NC(=O)[C@H](C)NC(=O)[C@H](Cc1c[nH]c2ccccc12)NC(=O)[C@@H](N)CC(C)C)C(=O)N[C@@H](CO)C(=O)N[C@@H](CC(=O)O)C(=O)N[C@@H](CCC(=O)O)C(=O)N[C@@H](Cc1ccccc1)C(=O)N[C@@H](CCC(=O)O)C(=O)NCC(=O)N[C@@H](CO)C(=O)N[C@@H](Cc1ccccc1)C(=O)N[C@@H](CCCCN)C(=O)NCC(=O)N[C@@H](CC(C)C)C(=O)O | 2.3 nM | 9.8 nM | 55 nM | 150 nM | < 1 nM | 660 nM | 140 nM | 41 nM | 11 nM | 96 nM | 42 nM | 4.5 nM | 77 nM | 8.5 nM | < 1 nM | < 5 nM | 3.2 nM | – |
| CC[C@H](C)[C@H](NC(=O)[C@H](CCC(=O)O)NC(=O)[C@H](CCCNC(=N)N)NC(=O)[C@H](C)NC(=O)[C@H](Cc1c[nH]c2ccccc12)NC(=O)[C@H](CCC(N)=O)NC(=O)[C@H](CCC(=O)O)NC(=O)[C@@H](N)CCC(=O)O)C(=O)NCC(=O)N[C@@H](C)C(=O)N[C@@H](CCC(N)=O)C(=O)N[C@@H](CC(C)C)C(=O)N[C@@H](CCCNC(=N)N)C(=O)N[C@@H](CCCNC(=N)N)C(=O)N[C@@H](CCSC)C(=O)N[C@@H](C)C(=O)N[C@@H](CC(=O)O)C(=O)N[C@@H](CC(=O)O)C(=O)N[C@@H](CC(C)C)C(=O)N[C@@H](CC(N)=O)C(=O)N[C@@H](C)C(=O)N[C@@H](CCC(N)=O)C(=O)N[C@@H](Cc1ccc(O)cc1)C(=O)N[C@@H](CCC(=O)O)C(=O)N[C@@H](CCCNC(=N)N)C(=O)N[C@@H](CCCNC(=N)N)C(=O)O | 8.9 nM | 75 nM | 180 nM | 89 nM | > 10000 nM | 530 nM | 120 nM | 130 nM | 29 nM | 380 nM | 100 nM | 8.7 nM | 170 nM | 26 nM | 9.7 nM | > 10000 nM | 1.4 nM | – |
| CN(C)CC[C@H](CSc1ccccc1)Nc1ccc(S(=O)(=O)NC(=O)c2ccc(N3CCN(Cc4ccccc4C(F)(F)F)CC3)cc2)cc1[N+](=O)[O-] | – | – | – | – | – | – | – | – | – | – | – | – | – | – | – | – | – | Ki (Bcl-2-like protein 2): 49 nM; Ki (Bcl-2-like protein 1 [18]): 200 nM; Ki (Bcl-2-like protein 1 [19]): 3.5 nM; Ki (Bcl-2-like protein 1 [20]): 11 nM; Ki [21]: > 10000 nM |
| CN(C)CC[C@H](CSc1ccccc1)Nc1ccc(S(=O)(=O)NC(=O)c2ccc(N3CCN(Cc4ccccc4-c4ccc(Cl)cc4)CC3)cc2)cc1[N+](=O)[O-] [ABT 737] | – | – | – | – | – | – | – | – | – | – | – | – | – | – | – | – | – | Kd [22]: > 1000 nM; Ki [23]: 60 nM; Ki [24]: 10 nM; Kd (Bcl-2-related protein A1): > 1000 nM |
| H-PAELEVECATQLRRFGDKLNFRQKLL-OH | > 10000 nM | > 10000 nM | > 10000 nM | > 10000 nM | > 10000 nM | > 10000 nM | > 10000 nM | > 10000 nM | > 10000 nM | > 10000 nM | > 10000 nM | > 10000 nM | > 10000 nM | > 10000 nM | > 10000 nM | > 10000 nM | > 10000 nM | – |
